The results in this text go back to patent US20240150356A1, “Pyrimidine amide compounds and use thereof” (ALPHALA CO., LTD., priority 2019, published 2024).

Where only a bound is given, the exact number is not on record here.

The subject of one assay is Hep3B cells (hepatocellular carcinoma cell line). As to the kind of experiment: In vitro MTS cell viability assay (NCI-60 methodology), Hep3B. It counts as cell-based. As to conditions: Homo sapiens, 48 h, Table 6, MTS, 2 days drug incubation, 50% reduction vs time zero, read-out: Hep3B LC50. The essentials:
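Hep3B cells given five 2-fold dilutions of compound for 2 days, with viability by MTS measured at time zero and at end. LC50 is the concentration giving a 50% fall in viable cells relative to the start of treatment, per NCI-60 formula.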
Background: Tetrazolium assays rely on reduction of a dye to a coloured formazan, in cell work by metabolically active cells.
The LC50 is the concentration that kills 50% of the test population. For the molecule `CC(C)(C)c1ccc(-n2ncc3c(NC(=O)c4ccc([N+](=O)[O-])s4)nc(N4CCCC4)nc32)cc1` [Compound 6-62, N-(1-(4-(tert-butyl)phenyl)-6-(pyrrolidin-1-yl)-1H-pyrazolo[3,4-d]pyrimidin-4-yl)-5-nitrothiophene-2-carboxamide], the LC50 worked out at 0.71 µM. On the same count and under the same terms, to `CC(C)(C)c1ccc(-n2ncc3c(NC(=O)c4ccc([N+](=O)[O-])s4)nc(N4CCCCC4)nc32)cc1` [Compound 6-63, N-(1-(4-(tert-butyl)phenyl)-6-(piperidin-1-yl)-1H-pyrazolo[3,4-d]pyrimidin-4-yl)-5-nitrothiophene-2-carboxamide] belongs 1.92 µM; to `CC1CCCN(c2nc(NC(=O)c3ccc([N+](=O)[O-])s3)c3cnn(-c4ccc(C(C)(C)C)cc4)c3n2)C1` (stereo not shown) [Compound 6-64, N-(1-(4-(tert-butyl)phenyl)-6-(3-methylpiperidin-1-yl)-1H-pyrazolo[3,4-d]pyrimidin-4-yl)-5-nitrothiophene-2-carboxamide], 1.07 µM. On the same count and under the same terms, with `CC(C)(C)c1ccc(-n2ncc3c(NC(=O)c4ccc([N+](=O)[O-])s4)nc(N4CC(F)(F)C4)nc32)cc1` [Compound 6-65, N-(1-(4-(tert-butyl)phenyl)-6-(3,3-difluoroazetidin-1-yl)-1H-pyrazolo[3,4-d]pyrimidin-4-yl)-5-nitrothiophene-2-carboxamide] the figure was 0.32 µM; with `CC(C)(C)c1ccc(-n2ncc3c(NC(=O)c4ccc([N+](=O)[O-])s4)nc(N4CCC(F)(F)CC4)nc32)cc1` [Compound 6-67, N-(1(4-(tert-butyl)phenyl)-6-(4,4-difluoropiperidin-1-yl)-1H-pyrazolo[3,4-d]pyrimidin-4-yl)-5-nitrothiophene-2-carboxamide], 0.73 µM. The same measure, in the same setting: to `CC(C)(C)c1ccc(-n2ncc3c(NC(=O)c4ccc([N+](=O)[O-])s4)nc(N4CCC[C@H]4C(=O)O)nc32)cc1` [Compound 6-70, (1-(4-(tert-butyl)phenyl)-4-(5-nitrothiophene-2-carboxamido)-1H-pyrazolo[3,4-d]pyrimidin-6-yl)-L-proline] belongs greater than 1.25 µM. On to `CCOCCOCCOC[C@@H]1CCCN1c1nc(NC(=O)c2ccc([N+](=O)[O-])s2)c2cnn(-c3ccc(C(C)(C)C)cc3)c2n1` [Compound 6-72, (S)—N-(1-(4-(tert-butyl)phenyl)-6-(2-((2-(2-ethoxyethoxy)ethoxy)methyl)pyrrolidin-1-yl)-1H-pyrazolo[3,4-d]pyrimidin-4-yl)-5-nitrothiophene-2-carboxamide], for which the LC50 was found to be 0.67 µM. As for `CC(C)(C)c1ccc(-n2ncc3c(NC(=O)c4ccc([N+](=O)[O-])s4)nc(N4CCN(C(C)(C)C)CC4)nc32)cc1` [Compound 6-73], the LC50 turned out to be 0.65 µM.

Consider `CC(C)(C)c1ccc(-n2ncc3c(NC(=O)c4ccc([N+](=O)[O-])s4)nc(-n4ccnc4)nc32)cc1` [Compound 6-74, N-(1-(4-(tert-butyl)phenyl)-6-(1H-imidazol-1-yl)-1H-pyrazolo[3,4-d]pyrimidin-4-yl)-5-nitrothiophene-2-carboxamide], for which the LC50 turned out to be 0.33 µM. Still for that read-out and setting: with `CC(C)(C)c1ccc(-n2ncc3c(NC(=O)c4ccc([N+](=O)[O-])s4)nc(-c4nnc(C(C)(C)C)o4)nc32)cc1` [Compound 6-76, N-(6-(5-(tert-butyl)-1,3,4-oxadiazol-2-yl)-1-(4-(tert-butyl)phenyl)-1H-pyrazolo[3,4-d]pyrimidin-4-yl)-5-nitrothiophene-2-carboxamide] the figure was 0.31 µM; with `Cc1ccn(-c2nc(NC(=O)c3ccc([N+](=O)[O-])s3)c3cnn(-c4ccc(C(C)(C)C)cc4)c3n2)n1` [Compound 6-77, N-(1-(4-(tert-butyl)phenyl)-6-(3-methyl-1H-pyrazol-1-yl)-1H-pyrazolo[3,4-d]pyrimidin-4-yl)-5-nitrothiophene-2-carboxamide], 0.25 µM. Still for that read-out and setting: with `CC(C)(C)c1ccc(-n2ncc3c(NC(=O)c4ccc([N+](=O)[O-])s4)nc(-n4cc(C(F)(F)F)cn4)nc32)cc1` [Compound 6-78, N-(1-(4-(ter-butyl)phenyl)-6-(4-(trifluoromethyl)-1H-pyrazol-1-yl)-1H-pyrazolo[3,4-d]pyrimidin-4-yl)-5-nitrothiophene-2-carboxamide] the figure was 0.57 µM. The same measure, in the same setting: to `CC(C)(C)c1ccc(-n2ncc3c(NC(=O)c4ccc([N+](=O)[O-])s4)nc(-c4ccccc4F)nc32)cc1` [Compound 6-79, N-(1-(4-(tert-butyl)phenyl)-6-(2-fluorophenyl)-1H-pyrazolo[3,4-d]pyrimidin-4-yl)-5-nitrothiophene-2-carboxamide] belongs 0.69 µM; to `CC(C)(C)c1ccc(-n2ncc3c(NC(=O)c4ccc([N+](=O)[O-])s4)nc(-c4cccc(F)c4)nc32)cc1` [Compound 6-80, N-(1-(4-(tert-butyl)phenyl)-6-(3-fluorophenyl)-1H-pyrazolo[3,4-d]pyrimidin-4-yl)-5-nitrothiophene-2-carboxamide], 0.78 µM; to `CC(C)(C)c1ccc(-n2ncc3c(NC(=O)c4ccc([N+](=O)[O-])s4)nc(-c4ccc(F)cc4)nc32)cc1` [Compound 6-81, N-(1-(4-(tert-butyl)phenyl)-6-(4-fluorophenyl)-1H-pyrazolo[3,4-d]pyrimidin-4-yl)-5-nitrothiophene-2-carboxamide], 0.94 µM. In the case of `COc1ccc(-c2nc(NC(=O)c3ccc([N+](=O)[O-])s3)c3cnn(-c4ccc(C(C)(C)C)cc4)c3n2)cn1` [Compound 6-82, N-(1-(4-(tert-butyl)phenyl)-6-(6-methoxypyridin-3-yl)-1H-pyrazolo[3,4-d]pyrimidin-4-yl)-5-nitrothiophene-2-carboxamide], the LC50 was found to be 0.38 µM.

Take `CCOCCOCCOc1ccc(-c2nc(NC(=O)c3ccc([N+](=O)[O-])s3)c3cnn(-c4ccc(C(C)(C)C)cc4)c3n2)cn1` [Compound 6-83, N-(1-(4-(ter-butyl)phenyl)-6-(6-(2-(2-ethoxyethoxy)ethoxy)pyridin-3-yl)-1H-pyrazolo[3,4-d]pyrimidin-4-yl)-5-nitrothiophene-2-carboxamide]: the LC50 was 0.41 µM. Same read-out and setting: with `CC(C)(C)c1ccc(-c2nc(NC(=O)c3ccc([N+](=O)[O-])s3)c3cnn(-c4ccc(OC(F)(F)F)cc4)c3n2)cc1` [Compound 6-86, N-(6-(4-(tert-butyl)phenyl)-1-(4-(trifluoromethoxy)phenyl)-1H-pyrazolo[3,4-d]pyrimidin-4-yl)-5-nitrothiophene-2-carboxamide] the figure was 3.46 µM; with `CCC(C)(C)c1ccc(-c2nc(NC(=O)c3ccc([N+](=O)[O-])s3)c3cnn(-c4ccc(OC(F)(F)F)cc4)c3n2)cc1` [Compound 6-87], greater than 2 µM; with `O=C(Nc1nc(-c2ccc(C(F)(F)F)cc2)nc2c1cnn2-c1ccc(OC(F)(F)F)cc1)c1ccc([N+](=O)[O-])s1` [Compound 6-88, 5-nitro-N-(1-(4-(trifluoromethoxy)phenyl)-6-(4-(trifluormethyl)phenyl)-1H-pyrazolo[3,4-d]pyrimidin-4-yl)thiophene-2-carboxamide], 0.42 µM.

With `O=C(Nc1nc(-c2ccc(Cl)cc2)nc2c1cnn2-c1cccc(F)c1)c1ccc([N+](=O)[O-])s1` [Compound 6-91, N-(6-(4-chlorophenyl)-1-(3-fluorophenyl)-1H-pyrazolo[3,4-d]pyrimidin-4-yl)-5-nitrothiophene-2-carboxamide], the LC50 was found to be 0.18 µM.

Staying with this assay, now noted: Homo sapiens, 48 h, read-out: Hep3B LC50 (uM).
`CC(C)(C)[Si](C)(C)OC1CN(c2nc(NC(=O)c3ccc([N+](=O)[O-])s3)c3cnn(-c4ccc(OC(F)(F)F)cc4)c3n2)C1` [Compound 6-84]: the LC50 amounted to 1.13 µM.
